In US11149018B2, “Substituted N-arylethyl-2-aminoquinoline-4-carboxamides and use thereof” (Bayer Aktiengesellschaft, priority 2017, dated 2021):
pIC50: −log10 of the molar value.

target: FP receptor (Homo sapiens (Human), UniProt P43088); test: In vitro test of inhibition of human FP receptor activity (PGF2α-induced calcium flux in FP-expressing CHEM1 cells); type: cell-based; settings: PGF2α 2 nM, some mean values of multiple determinations
Outline: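 FP antagonism in FP-expressing CHEM1 cells loaded with Fluo-8. Compound preincubated 10 min at 37° C, then receptor stimulated with 2 nM (final) PGF2α in calcium-free Tyrode with 2 mM CaCl2.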

FP receptor, sequence (P43088 whole entry): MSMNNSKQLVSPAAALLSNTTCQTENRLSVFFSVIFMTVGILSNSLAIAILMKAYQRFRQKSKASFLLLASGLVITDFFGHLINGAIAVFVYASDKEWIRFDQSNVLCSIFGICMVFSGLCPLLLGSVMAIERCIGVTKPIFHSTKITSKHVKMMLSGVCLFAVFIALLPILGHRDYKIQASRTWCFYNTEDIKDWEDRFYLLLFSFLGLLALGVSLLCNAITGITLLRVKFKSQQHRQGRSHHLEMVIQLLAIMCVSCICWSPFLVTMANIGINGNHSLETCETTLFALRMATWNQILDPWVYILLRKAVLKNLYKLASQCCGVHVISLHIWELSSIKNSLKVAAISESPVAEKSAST

| pIC50 | Structure (SMILES) |
| --- | --- |
| 8.24 | Cc1c(N2CCCC(C(F)(F)F)C2)nc2ccc(Br)cc2c1C(=O)NCC(CCC(=O)O)c1ccccc1Cl (centres unmarked) [Example 53, 5-[({6-Bromo-3-methyl-2-[3-(trifluoromethyl)piperidin-1-yl]quinolin-4-yl}carbonyl)amino]-4-(2-chlorophenyl)pentanoic acid] |
| 6.96 | Cc1c(N2CCCC(O)C2)nc2ccc(Br)cc2c1C(=O)NCC(CCC(=O)O)c1ccccc1Cl (centres unmarked) [Example 55, 5-[({6-Bromo-2-[3-hydroxypiperidin-1-yl]-3-methylquinolin-4-yl}carbonyl)amino]-4-(2-chlorophenyl)pentanoic acid] |
| 6.48 | Cc1c(N2CCCC(N)C2)nc2ccc(Br)cc2c1C(=O)NCC(CCC(=O)O)c1ccccc1Cl (centres unmarked) [Example 56, 5-[({2-[3-Aminopiperidin-1-yl]-6-bromo-3-methylquinolin-4-yl}carbonyl)amino]-4-(2-chlorophenyl)pentanoic acid] |
| 6.96 | Cc1c(N2CCCC(C)(O)C2)nc2ccc(Br)cc2c1C(=O)NCC(CCC(=O)O)c1ccccc1Cl (centres unmarked) [Example 62, 5-[({6-Bromo-2-[3-hydroxy-3-methylpiperidin-1-yl]-3-methylquinolin-4-yl}carbonyl)amino]-4-(2-chlorophenyl)pentanoic acid] |
| 8.14 | Cc1c(N2CC(C)CC(C)C2)nc2ccc(Br)cc2c1C(=O)NCC(CCC(=O)O)c1ccccc1Cl (centres unmarked) [Example 63, 5-[({6-Bromo-2-[3,5-dimethylpiperidin-1-yl]-3-methylquinolin-4-yl}carbonyl)amino]-4-(2-chlorophenyl)pentanoic acid] |
| 8.01 | Cc1c(N2CCCC(C(F)F)C2)nc2ccc(Br)cc2c1C(=O)NCC(CCC(=O)O)c1ccccc1Cl (centres unmarked) [Example 64, 5-[({6-Bromo-2-[3-(difluoromethyl)piperidin-1-yl]-3-methylquinolin-4-yl}carbonyl)amino]-4-(2-chlorophenyl)pentanoic acid] |
| 6.96 | Cc1c(N2CC[C@H](F)C2)nc2ccc(Br)cc2c1C(=O)NCC(CCC(=O)O)c1ccccc1Cl (stereo partly drawn) [Example 65, 5-[({6-Bromo-2-[(3S)-3-fluoropyrrolidin-1-yl]-3-methylquinolin-4-yl}carbonyl)amino]-4-(2-chlorophenyl)pentanoic acid] |
| 7.92 | Cc1c(N2CC[C@@H](F)C2)nc2ccc(Br)cc2c1C(=O)NCC(CCC(=O)O)c1ccccc1Cl (stereo partly drawn) [Example 66, 5-[({6-Bromo-2-[(3R)-3-fluoropyrrolidin-1-yl]-3-methylquinolin-4-yl}carbonyl)amino]-4-(2-chlorophenyl)pentanoic acid] |
| 7.38 | Cc1c(N2CC(F)C(F)C2)nc2ccc(Br)cc2c1C(=O)NCC(CCC(=O)O)c1ccccc1Cl (stereo not drawn) [Example 69, 5-[({6-Bromo-2-[trans-3,4-difluoropyrrolidin-1-yl]-3-methylquinolin-4-yl}carbonyl)amino]-4-(2-chlorophenyl)pentanoic acid] |
| 6.96 | Cc1c(N2CCC(C)(F)C2)nc2ccc(Br)cc2c1C(=O)NCC(CCC(=O)O)c1ccccc1Cl (centres unmarked) [Example 71, 5-[({6-Bromo-2-[3-fluoro-3-methylpyrrolidin-1-yl]-3-methylquinolin-4-yl}carbonyl)amino]-4-(2-chlorophenyl)pentanoic acid] |
| 6.17 | Cc1c(N2CCCC(C#N)C2)nc2ccc(Br)cc2c1C(=O)NCC(CCC(=O)O)c1ccccc1Cl (centres unmarked) [Example 76, 5-[({6-Bromo-2-[3-cyanopiperidin-1-yl]-3-methylquinolin-4-yl}carbonyl)amino]-4-(2-chlorophenyl)pentanoic acid] |
| 8.36 | Cc1c(N2CCCC(F)C2)nc2ccc(Br)cc2c1C(=O)NCC(CCC(=O)O)c1ccccc1Cl (centres unmarked) [Example 78, 5-[({6-Bromo-2-[3-fluoropiperidin-1-yl]-3-methylquinolin-4-yl}carbonyl)amino]-4-(2-chlorophenyl)pentanoic acid] |
| 8.11 | Cc1c(N2CCCC2C)nc2ccc(Br)cc2c1C(=O)NCC(CCC(=O)O)c1ccccc1Cl (centres unmarked) [Example 79, 5-[({6-Bromo-3-methyl-2-[2-methylpyrrolidin-1-yl]quinolin-4-yl}carbonyl)amino]-4-(2-chlorophenyl)pentanoic acid] |
| 6.23 | Cc1c(N2CCCC(C(N)=O)C2)nc2ccc(Br)cc2c1C(=O)NCC(CCC(=O)O)c1ccccc1Cl (centres unmarked) [Example 85, 5-[({6-Bromo-2-[3-carbamoylpiperidin-1-yl]-3-methylquinolin-4-yl}carbonyl)amino]-4-(2-chlorophenyl)pentanoic acid] |
| 6.46 | Cc1c(N2CCOC(C)C2)nc2ccc(Br)cc2c1C(=O)NCC(CCC(=O)O)c1ccccc1Cl (centres unmarked) [Example 89, 5-[({6-Bromo-3-methyl-2-[2-methylmorpholin-4-yl]quinolin-4-yl}carbonyl)amino]-4-(2-chlorophenyl)pentanoic acid] |
| 8.00 | Cc1c(N2CCCC(C(C)C)C2)nc2ccc(Br)cc2c1C(=O)NCC(CCC(=O)O)c1ccccc1Cl (centres unmarked) [Example 91, 5-[({6-Bromo-2-[3-isopropylpiperidin-1-yl]-3-methylquinolin-4-yl}carbonyl)amino]-4-(2-chlorophenyl)pentanoic acid] |
| 7.10 | COCC1CCCN(c2nc3ccc(Br)cc3c(C(=O)NCC(CCC(=O)O)c3ccccc3Cl)c2C)C1 (centres unmarked) [Example 93, 5-[({6-Bromo-2-[3-(methoxymethyl)piperidin-1-yl]-3-methylquinolin-4-yl}carbonyl)amino]-4-(2-chlorophenyl)pentanoic acid] |
| 6.44 | Cc1c(N2CCCCC2C)nc2ccc(Br)cc2c1C(=O)NCC(CCC(=O)O)c1ccccc1Cl (centres unmarked) [Example 108, 5-[({6-Bromo-3-methyl-2-[2-methylpiperidin-1-yl]quinolin-4-yl}carbonyl)amino]-4-(2-chlorophenyl)pentanoic acid] |
| 7.89 | Cc1c(N2CCCC(F)C2)nc2ccc(Br)cc2c1C(=O)NCC(CCC(=O)O)c1ccccc1C(F)(F)F (centres unmarked) [Example 123, 5-[({6-Bromo-2-[3-fluoropiperidin-1-yl]-3-methylquinolin-4-yl}carbonyl)amino]-4-[2-(trifluoromethyl)phenyl]pentanoic acid] |
| 8.55 | CCC1CCCN(c2nc3ccc(Br)cc3c(C(=O)NCC(CCC(=O)O)c3ccccc3C(F)(F)F)c2C)C1 (centres unmarked) [Example 124, 5-[({6-Bromo-2-[3-ethylpiperidin-1-yl]-3-methylquinolin-4-yl}carbonyl)amino]-4-[2-(trifluoromethyl)phenyl]pentanoic acid] |
| 8.28 | Cc1c(N2CCCC(C)C2)nc2ccc(Br)cc2c1C(=O)NCC(CCC(=O)O)c1ccccc1C(F)(F)F (centres unmarked) [Example 125, 5-[({6-Bromo-3-methyl-2-[3-methylpiperidin-1-yl]quinolin-4-yl}carbonyl)amino]-4-[2-(trifluoromethyl)phenyl]pentanoic acid] |
| 8.52 | Cc1c(N2CCCC(F)C2)nc2ccc(Br)cc2c1C(=O)NCC(CCC(=O)O)c1ccccc1OC(F)(F)F (centres unmarked) [Example 138, 5-[({6-Bromo-2-[3-fluoropiperidin-1-yl]-3-methylquinolin-4-yl}carbonyl)amino]-4-[2-(trifluoromethoxy)phenyl]pentanoic acid] |
| 8.82 | CCC1CCCN(c2nc3ccc(Br)cc3c(C(=O)NCC(CCC(=O)O)c3ccccc3OC(F)(F)F)c2C)C1 (centres unmarked) [Example 139, 5-[({6-Bromo-2-[3-ethylpiperidin-1-yl]-3-methylquinolin-4-yl}carbonyl)amino]-4-[2-(trifluoromethoxy)phenyl]pentanoic acid] |
